Laboratory results taken from US20090299044A1 (priority 2006, published 2009).
Bridge positions count the residues as written; N and C are the ends. Peptide text beside a SMILES is read from it.

Experiments:
human Kv1.3 (CHO) = biological target: T1, human Kv1.3 (CHO) (Homo sapiens, UniProt P22001); test: cell-based
T1 construct: expressed in transfected cells; host or cells: CHO

human Kv1.1 (HEK293) = biological target: T2, human Kv1.1 (HEK293) (Homo sapiens, UniProt Q09470); test: cell-based
T2 construct: expressed in transfected cells; host or cells: HEK293
T2 sequence (Q09470 whole entry): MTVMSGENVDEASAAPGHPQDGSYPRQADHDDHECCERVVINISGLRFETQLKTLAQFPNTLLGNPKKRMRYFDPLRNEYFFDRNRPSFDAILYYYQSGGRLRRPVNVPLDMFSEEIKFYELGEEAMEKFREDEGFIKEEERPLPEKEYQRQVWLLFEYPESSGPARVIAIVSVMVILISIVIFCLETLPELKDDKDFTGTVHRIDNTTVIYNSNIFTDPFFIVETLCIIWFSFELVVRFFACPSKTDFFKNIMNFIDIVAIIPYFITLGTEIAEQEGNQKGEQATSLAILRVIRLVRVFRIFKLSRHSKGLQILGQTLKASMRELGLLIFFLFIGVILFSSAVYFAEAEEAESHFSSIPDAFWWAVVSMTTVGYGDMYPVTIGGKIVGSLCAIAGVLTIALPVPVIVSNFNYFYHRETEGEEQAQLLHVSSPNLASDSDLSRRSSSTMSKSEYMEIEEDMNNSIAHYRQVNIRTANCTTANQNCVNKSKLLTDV

T1 sequence (P22001 whole entry): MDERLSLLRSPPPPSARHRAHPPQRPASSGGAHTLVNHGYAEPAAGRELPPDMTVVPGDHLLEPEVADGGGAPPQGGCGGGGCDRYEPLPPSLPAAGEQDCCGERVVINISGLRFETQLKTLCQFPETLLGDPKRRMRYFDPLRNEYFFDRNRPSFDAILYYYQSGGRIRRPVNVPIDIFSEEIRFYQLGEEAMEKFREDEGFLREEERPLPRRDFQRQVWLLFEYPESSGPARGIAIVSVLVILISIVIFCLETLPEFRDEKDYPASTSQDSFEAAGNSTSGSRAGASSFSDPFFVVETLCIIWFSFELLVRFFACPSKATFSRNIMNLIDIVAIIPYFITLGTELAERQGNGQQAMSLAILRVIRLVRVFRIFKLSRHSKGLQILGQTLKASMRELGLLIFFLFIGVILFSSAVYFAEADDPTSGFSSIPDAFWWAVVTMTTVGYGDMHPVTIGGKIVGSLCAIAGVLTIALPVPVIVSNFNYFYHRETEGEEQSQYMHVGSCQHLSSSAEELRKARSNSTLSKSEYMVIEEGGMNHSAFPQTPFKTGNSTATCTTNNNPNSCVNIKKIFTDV

| Compound | IC50 (human Kv1.3 (CHO)) | IC50 (human Kv1.1 (HEK293)) |
| --- | --- | --- |
| CC[C@H](C)[C@@H]1NC(=O)[C@H](C)NC(=O)[C@@H](NC(=O)[C@H](CCCCN)NC(=O)[C@@H](NC(=O)[C@H](CC(N)=O)NC(=O)[C@@H](NC(=O)[C@@H](NC(=O)[C@@H](NC(=O)CN)C(C)C)[C@@H](C)CC)[C@@H](C)CC)C(C)C)CSSC[C@@H]2NC(=O)[C@H](CCCCN)NC(=O)CNC(=O)[C@H](Cc3ccccc3)NC(=O)[C@H](CCCNC(=N)N)NC(=O)[C@H](CCSC)NC(=O)CNC(=O)[C@H](C)NC(=O)[C@H](CCCCN)NC(=O)[C@H](CCCCN)NC(=O)[C@@H]3CSSC[C@@H](C(=O)N[C@H](C(=O)N4CCC[C@H]4C(=O)N[C@@H](CCCCN)C(=O)O)[C@@H](C)O)NC(=O)[C@H](Cc4c[nH]cn4)NC(=O)[C@H](CSSC[C@H](NC(=O)[C@H](CCC(N)=O)NC(=O)[C@H](CCCNC(=N)N)NC(=O)[C@H](CO)NC1=O)C(=O)N[C@@H](CC(C)C)C(=O)N[C@@H](CCC(=O)O)C(=O)N1CCC[C@H]1C(=O)N3)NC(=O)[C@H](CCCCN)NC(=O)CNC(=O)[C@H](CC(N)=O)NC(=O)[C@H](CCSC)NC2=O [K9A] (H-GVIINVKCAISRQCLEPCKKAGMRFGKCMNGKCHCTPK-OH; disulfide 8-28, 14-33, 18-35) | 0.166 nM | 0.0406 nM |
| CC[C@H](C)[C@@H]1NC(=O)[C@H](CCCCN)NC(=O)[C@@H](NC(=O)[C@H](CCCCN)NC(=O)[C@@H](NC(=O)[C@H](CC(N)=O)NC(=O)[C@@H](NC(=O)[C@@H](NC(=O)[C@@H](NC(=O)CN)C(C)C)[C@@H](C)CC)[C@@H](C)CC)C(C)C)CSSC[C@@H]2NC(=O)[C@H](CCCCN)NC(=O)[C@H](CCC(=O)O)NC(=O)[C@H](Cc3ccccc3)NC(=O)[C@H](CCCNC(=N)N)NC(=O)[C@H](CCSC)NC(=O)CNC(=O)[C@H](C)NC(=O)[C@H](CCCCN)NC(=O)[C@H](CCCCN)NC(=O)[C@@H]3CSSC[C@@H](C(=O)N[C@H](C(=O)N4CCC[C@H]4C(=O)N[C@@H](CCCCN)C(=O)O)[C@@H](C)O)NC(=O)[C@H](Cc4c[nH]cn4)NC(=O)[C@H](CSSC[C@H](NC(=O)[C@H](CCC(N)=O)NC(=O)[C@H](CCCNC(=N)N)NC(=O)[C@H](CO)NC1=O)C(=O)N[C@@H](CC(C)C)C(=O)N[C@@H](CCC(=O)O)C(=O)N1CCC[C@H]1C(=O)N3)NC(=O)[C@H](CCCCN)NC(=O)CNC(=O)[C@H](CC(N)=O)NC(=O)[C@H](CCSC)NC2=O [G26E] (H-GVIINVKCKISRQCLEPCKKAGMRFEKCMNGKCHCTPK-OH; disulfide 8-28, 14-33, 18-35) | > 3.33 nM | > 3.33 nM |
| CC[C@H](C)[C@@H]1NC(=O)[C@H](CCCCN)NC(=O)[C@@H](NC(=O)[C@H](CCCCN)NC(=O)[C@@H](NC(=O)[C@H](CC(N)=O)NC(=O)[C@@H](NC(=O)[C@@H](NC(=O)[C@@H](NC(=O)CN)C(C)C)[C@@H](C)CC)[C@@H](C)CC)C(C)C)CSSC[C@@H]2NC(=O)[C@H](CCCCN)NC(=O)CNC(=O)[C@H](Cc3ccccc3)NC(=O)[C@H](CCCNC(=N)N)NC(=O)[C@H](CCCNC(=N)N)NC(=O)CNC(=O)[C@H](C)NC(=O)[C@H](CCCCN)NC(=O)[C@H](CCCCN)NC(=O)[C@@H]3CSSC[C@@H](C(=O)N[C@H](C(=O)N4CCC[C@H]4C(=O)N[C@@H](CCCCN)C(=O)O)[C@@H](C)O)NC(=O)[C@H](Cc4c[nH]cn4)NC(=O)[C@H](CSSC[C@H](NC(=O)[C@H](CCC(N)=O)NC(=O)[C@H](CCCNC(=N)N)NC(=O)[C@H](CO)NC1=O)C(=O)N[C@@H](CC(C)C)C(=O)N[C@@H](CCC(=O)O)C(=O)N1CCC[C@H]1C(=O)N3)NC(=O)[C@H](CCCCN)NC(=O)CNC(=O)[C@H](CC(N)=O)NC(=O)[C@H](CCSC)NC2=O [M23R] (H-GVIINVKCKISRQCLEPCKKAGRRFGKCMNGKCHCTPK-OH; disulfide 8-28, 14-33, 18-35) | 0.0123 nM | 0.00201 nM |
| CC[C@H](C)[C@H](NC(=O)[C@@H](NC(=O)CN)C(C)C)C(=O)N[C@H](C(=O)N[C@@H](CC(N)=O)C(=O)N[C@H](C(=O)N[C@@H](CCCCN)C(=O)N[C@H]1CSSC[C@@H]2NC(=O)[C@H](CCCCN)NC(=O)CNC(=O)[C@H](Cc3ccccc3)NC(=O)[C@H](CCCNC(=N)N)NC(=O)[C@H](CCSC)NC(=O)CNC(=O)[C@H](C)NC(=O)[C@H](CCCCN)NC(=O)[C@H](CCCCN)NC(=O)[C@@H]3CSSC[C@@H](C(=O)N[C@H](C(=O)N4CCC[C@H]4C(=O)N[C@@H](CCCCN)C(=O)O)[C@@H](C)O)NC(=O)[C@H](Cc4c[nH]cn4)NC(=O)[C@H](CSSC[C@H](NC(=O)[C@H](CCC(N)=O)NC(=O)[C@H](CCCNC(=N)N)NC(=O)[C@H](CO)NC(=O)[C@H](CCCNC(=N)N)NC(=O)[C@H](CCCCN)NC1=O)C(=O)N[C@@H](CC(C)C)C(=O)N[C@@H](CCC(=O)O)C(=O)N1CCC[C@H]1C(=O)N3)NC(=O)[C@H](CCCCN)NC(=O)CNC(=O)[C@H](CC(N)=O)NC(=O)[C@H](CCSC)NC2=O)C(C)C)[C@@H](C)CC [I10R] (H-GVIINVKCKRSRQCLEPCKKAGMRFGKCMNGKCHCTPK-OH; disulfide 8-28, 14-33, 18-35) | 0.0117 nM | 0.00173 nM |
| CC[C@H](C)[C@@H]1NC(=O)[C@H](CCCCN)NC(=O)[C@@H](NC(=O)[C@H](CCCCN)NC(=O)[C@@H](NC(=O)[C@H](CC(N)=O)NC(=O)[C@@H](NC(=O)[C@H](CCC(=O)O)NC(=O)[C@@H](NC(=O)CN)C(C)C)[C@@H](C)CC)C(C)C)CSSC[C@@H]2NC(=O)[C@H](CCCCN)NC(=O)CNC(=O)[C@H](Cc3ccccc3)NC(=O)[C@H](CCCNC(=N)N)NC(=O)[C@H](CCSC)NC(=O)CNC(=O)[C@H](C)NC(=O)[C@H](CCCCN)NC(=O)[C@H](CCCCN)NC(=O)[C@@H]3CSSC[C@@H](C(=O)N[C@H](C(=O)N4CCC[C@H]4C(=O)N[C@@H](CCCCN)C(=O)O)[C@@H](C)O)NC(=O)[C@H](Cc4c[nH]cn4)NC(=O)[C@H](CSSC[C@H](NC(=O)[C@H](CCC(N)=O)NC(=O)[C@H](CCCNC(=N)N)NC(=O)[C@H](CO)NC1=O)C(=O)N[C@@H](CC(C)C)C(=O)N[C@@H](CCC(=O)O)C(=O)N1CCC[C@H]1C(=O)N3)NC(=O)[C@H](CCCCN)NC(=O)CNC(=O)[C@H](CC(N)=O)NC(=O)[C@H](CCSC)NC2=O [I3E] (H-GVEINVKCKISRQCLEPCKKAGMRFGKCMNGKCHCTPK-OH; disulfide 8-28, 14-33, 18-35) | 0.022 nM | 0.043 nM |
| CC[C@H](C)[C@@H]1NC(=O)[C@H](CCCCN)NC(=O)[C@@H](NC(=O)[C@H](CCCCN)NC(=O)[C@@H](NC(=O)[C@H](CCCNC(=N)N)NC(=O)[C@@H](NC(=O)[C@@H](NC(=O)[C@@H](NC(=O)CN)C(C)C)[C@@H](C)CC)[C@@H](C)CC)C(C)C)CSSC[C@@H]2NC(=O)[C@H](CCCCN)NC(=O)CNC(=O)[C@H](Cc3ccccc3)NC(=O)[C@H](CCCNC(=N)N)NC(=O)[C@H](CCSC)NC(=O)CNC(=O)[C@H](C)NC(=O)[C@H](CCCCN)NC(=O)[C@H](CCCCN)NC(=O)[C@@H]3CSSC[C@@H](C(=O)N[C@H](C(=O)N4CCC[C@H]4C(=O)N[C@@H](CCCCN)C(=O)O)[C@@H](C)O)NC(=O)[C@H](Cc4c[nH]cn4)NC(=O)[C@H](CSSC[C@H](NC(=O)[C@H](CCC(N)=O)NC(=O)[C@H](CCCNC(=N)N)NC(=O)[C@H](CO)NC1=O)C(=O)N[C@@H](CC(C)C)C(=O)N[C@@H](CCC(=O)O)C(=O)N1CCC[C@H]1C(=O)N3)NC(=O)[C@H](CCCCN)NC(=O)CNC(=O)[C@H](CC(N)=O)NC(=O)[C@H](CCSC)NC2=O [N5R] (H-GVIIRVKCKISRQCLEPCKKAGMRFGKCMNGKCHCTPK-OH; disulfide 8-28, 14-33, 18-35) | 0.0136 nM | 0.00215 nM |
